# PubChem BioAssay AID2060617 (Molecular Pharmacology Branch, DTP, NCI, 2025)
# System: 485368-065-R4-J2-PDC spheroids with HUVEC/MSC, viability
# Assay: Anticancer human tumor 485368-065-R4-J2-PDC patient-derived pancreatic carcinoma cell line growth inhibition [CLK]
# Details: for IC50: curve of first compound; for viability, T/C: stronger effect = lower value
# Procedure, shortened: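 Patient-derived tumor cells grown as complex spheroids with HUVEC endothelial cells and mesenchymal stem cells, treated with drug combinations. Concentrations descend in half-log steps from near clinical Cmax, or from 10 microM if Cmax unknown.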
# [1] = second compound 0.0316 µM, first compound 0.0316 µM
# [2] = second compound 0.0316 µM, first compound 0.1 µM
# [3] = second compound 0.0316 µM, first compound 0.316 µM
# [4] = second compound 0.0316 µM, first compound 1 µM
# [5] = second compound 0.0316 µM, first compound 3.16 µM
# [6] = second compound 0.0316 µM, first compound 10 µM
# [7] = second compound 0.1 µM, first compound 0.0316 µM
# [8] = second compound 0.1 µM, first compound 0.1 µM
# [9] = second compound 0.1 µM, first compound 0.316 µM
# [10] = second compound 0.1 µM, first compound 1 µM
# [11] = second compound 0.1 µM, first compound 3.16 µM
# [12] = second compound 0.1 µM, first compound 10 µM
# [13] = second compound 0.316 µM, first compound 0.0316 µM
# [14] = second compound 0.316 µM, first compound 0.1 µM
# [15] = second compound 0.316 µM, first compound 0.316 µM
# [16] = second compound 0.316 µM, first compound 1 µM
# [17] = second compound 0.316 µM, first compound 3.16 µM
# [18] = second compound 0.316 µM, first compound 10 µM
# [19] = second compound 1 µM, first compound 0.0316 µM
# [20] = second compound 1 µM, first compound 0.1 µM
# [21] = second compound 1 µM, first compound 0.316 µM
# [22] = second compound 1 µM, first compound 1 µM
# [23] = second compound 1 µM, first compound 3.16 µM
# [24] = second compound 1 µM, first compound 10 µM
# [25] = second compound 3.16 µM, first compound 0.0316 µM
# [26] = second compound 3.16 µM, first compound 0.1 µM
# [27] = second compound 3.16 µM, first compound 0.316 µM
# [28] = second compound 3.16 µM, first compound 1 µM
# [29] = second compound 3.16 µM, first compound 3.16 µM
# [30] = second compound 3.16 µM, first compound 10 µM
# [31] = second compound 10 µM, first compound 0.0316 µM
# [32] = second compound 10 µM, first compound 0.1 µM
# [33] = second compound 10 µM, first compound 0.316 µM
# [34] = second compound 10 µM, first compound 1 µM
# [35] = second compound 10 µM, first compound 3.16 µM
# [36] = second compound 10 µM, first compound 10 µM
# 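Note: spheroids exposed to compounds for seven days.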
# 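Throughout, for viability, T/C: 100% = DMSO vehicle control wells.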
smiles,measurement,setting,value
CC(=O)O[C@H]1C(=O)[C@@]2(C)[C@H]([C@H](OC(=O)c3ccccc3)[C@]3(O)C[C@H](OC(=O)[C@H](O)[C@@H](NC(=O)c4ccccc4)c4ccccc4)C(C)=C1C3(C)C)[C@]1(OC(C)=O)CO[C@@H]1C[C@@H]2O + CNC(=O)c1ccc(Nc2nc(OC3CCCC3)c3c(-c4ccc5nc(C)oc5c4)c[nH]c3n2)c(OC)c1,IC50,second compound 0.0316 µM,> 10 µM
same,IC50,second compound 0.1 µM,> 10 µM
same,IC50,second compound 0.316 µM,> 10 µM
same,IC50,second compound 1 µM,> 10 µM
same,IC50,second compound 3.16 µM,> 10 µM
same,IC50,second compound 10 µM,> 10 µM
same,"viability, T/C",[1],63.4%
same,"viability, T/C",[2],49.2%
same,"viability, T/C",[3],55.9%
same,"viability, T/C",[4],62.6%
same,"viability, T/C",[5],56.5%
same,"viability, T/C",[6],55.8%
same,"viability, T/C",[7],59.1%
same,"viability, T/C",[8],66.3%
same,"viability, T/C",[9],60.4%
same,"viability, T/C",[10],56.7%
same,"viability, T/C",[11],55.2%
same,"viability, T/C",[12],76.5%
same,"viability, T/C",[13],76.3%
same,"viability, T/C",[14],79.7%
same,"viability, T/C",[15],85.2%
same,"viability, T/C",[16],85.6%
same,"viability, T/C",[17],86.6%
same,"viability, T/C",[18],102%
same,"viability, T/C",[19],73.8%
same,"viability, T/C",[20],82.2%
same,"viability, T/C",[21],81.6%
same,"viability, T/C",[22],83.5%
same,"viability, T/C",[23],90.5%
same,"viability, T/C",[24],91.9%
same,"viability, T/C",[25],74.4%
same,"viability, T/C",[26],80.1%
same,"viability, T/C",[27],86.4%
same,"viability, T/C",[28],78.6%
same,"viability, T/C",[29],88%
same,"viability, T/C",[30],88.9%
same,"viability, T/C",[31],67.5%
same,"viability, T/C",[32],78.8%
same,"viability, T/C",[33],73.9%
same,"viability, T/C",[34],77.5%
same,"viability, T/C",[35],82.4%
same,"viability, T/C",[36],95.4%
CCc1c2c(nc3ccc(O)cc13)-c1cc3c(c(=O)n1C2)COC(=O)[C@]3(O)CC + CNC(=O)c1ccc(Nc2nc(OC3CCCC3)c3c(-c4ccc5nc(C)oc5c4)c[nH]c3n2)c(OC)c1,IC50,second compound 0.0316 µM,0.00369 µM
same,IC50,second compound 0.1 µM,< 0.00316 µM
same,IC50,second compound 0.316 µM,< 0.00316 µM
same,IC50,second compound 1 µM,< 0.00316 µM
same,IC50,second compound 3.16 µM,< 0.00316 µM
same,IC50,second compound 10 µM,< 0.00316 µM
same,"viability, T/C","second compound 0.0316 µM, first compound 0.00316 µM",53.6%
same,"viability, T/C","second compound 0.0316 µM, first compound 0.01 µM",27%
same,"viability, T/C",[1],13.1%
same,"viability, T/C",[2],7.46%
same,"viability, T/C",[3],10.5%
same,"viability, T/C",[4],16%
same,"viability, T/C","second compound 0.1 µM, first compound 0.00316 µM",46.3%
same,"viability, T/C","second compound 0.1 µM, first compound 0.01 µM",27%
same,"viability, T/C",[7],12.6%
same,"viability, T/C",[8],7.47%
same,"viability, T/C",[9],8.97%
same,"viability, T/C",[10],17%
same,"viability, T/C","second compound 0.316 µM, first compound 0.00316 µM",41.9%
same,"viability, T/C","second compound 0.316 µM, first compound 0.01 µM",20.4%
same,"viability, T/C",[13],11.7%
same,"viability, T/C",[14],7.63%
same,"viability, T/C",[15],9%
same,"viability, T/C",[16],16.2%
same,"viability, T/C","second compound 1 µM, first compound 0.00316 µM",25.8%
same,"viability, T/C","second compound 1 µM, first compound 0.01 µM",13.5%
same,"viability, T/C",[19],8.98%
same,"viability, T/C",[20],6.66%
same,"viability, T/C",[21],10.7%
same,"viability, T/C",[22],18.1%
same,"viability, T/C","second compound 3.16 µM, first compound 0.00316 µM",20.9%
same,"viability, T/C","second compound 3.16 µM, first compound 0.01 µM",11.3%
same,"viability, T/C",[25],9.77%
same,"viability, T/C",[26],7.07%
same,"viability, T/C",[27],11.5%
same,"viability, T/C",[28],18.9%
same,"viability, T/C","second compound 10 µM, first compound 0.00316 µM",19.4%
same,"viability, T/C","second compound 10 µM, first compound 0.01 µM",13.9%
same,"viability, T/C",[31],7.33%
same,"viability, T/C",[32],7.37%
same,"viability, T/C",[33],15.9%
same,"viability, T/C",[34],20.8%
O=c1[nH]cc(F)c(=O)[nH]1 + CNC(=O)c1ccc(Nc2nc(OC3CCCC3)c3c(-c4ccc5nc(C)oc5c4)c[nH]c3n2)c(OC)c1,IC50,second compound 0.0316 µM,> 10 µM
same,IC50,second compound 0.1 µM,> 10 µM
same,IC50,second compound 0.316 µM,> 10 µM
same,IC50,second compound 1 µM,> 10 µM
same,IC50,second compound 3.16 µM,> 10 µM
same,IC50,second compound 10 µM,> 10 µM
same,"viability, T/C",[1],82%
same,"viability, T/C",[2],98.8%
same,"viability, T/C",[3],80.4%
same,"viability, T/C",[4],97.6%
same,"viability, T/C",[5],95.1%
same,"viability, T/C",[6],81%
same,"viability, T/C",[7],95.5%
same,"viability, T/C",[8],99.2%
same,"viability, T/C",[9],97%
same,"viability, T/C",[10],103%
same,"viability, T/C",[11],93.6%
same,"viability, T/C",[12],82.3%
same,"viability, T/C",[13],81.4%
same,"viability, T/C",[14],80.7%
same,"viability, T/C",[15],81.3%
same,"viability, T/C",[16],82%
same,"viability, T/C",[17],87.3%
same,"viability, T/C",[18],74.2%
same,"viability, T/C",[19],79.2%
same,"viability, T/C",[20],83.7%
same,"viability, T/C",[21],75%
same,"viability, T/C",[22],75.9%
same,"viability, T/C",[23],71%
same,"viability, T/C",[24],62.8%
same,"viability, T/C",[25],69.4%
same,"viability, T/C",[26],70.4%
same,"viability, T/C",[27],69.5%
same,"viability, T/C",[28],73.3%
same,"viability, T/C",[29],68.1%
same,"viability, T/C",[30],64.1%
same,"viability, T/C",[31],63.3%
same,"viability, T/C",[32],69.6%
same,"viability, T/C",[33],72.1%
same,"viability, T/C",[34],64.1%
same,"viability, T/C",[35],67%
same,"viability, T/C",[36],51.8%
